Experimental data from US20230114728A1 (Venatorx Pharmaceuticals, Inc., priority 2019, published 2023).
pEC50: −log10 of the molar value.

What was measured:
[1] = Bocillin-FL fluorescence polarization competition binding assay, A. baumannii PBP3; settings: fluorescence polarization competition binding assay using Bocillin-FL; column 3; read-out: 4. baumannii PBP1a Potency
How it was run: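 Fluorescence polarization (ex 490/em 520 nm) competition of inhibitors against Bocillin-FL at 0.1 μM, read up to 60 min. Final PBP levels: E. coli PBP3 1.5 μM; A. baumannii PBP2 2.5 μM, PBP3 0.2 μM in Tris pH 8.0/NaCl/glycerol/Tween 20; N. gonorrhoeae PBP2 […] in Hepes pH 8.0/NaCl/glycerol. EC50 = concentration halving PBP-bound Bocillin-FL.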

A. baumannii PBP1a = A. baumannii PBP1a (Acinetobacter baumannii, UniProt A0ABX6CK30); test: Bocillin-FL fluorescence polarization competition binding assay, A. baumannii PBP1a; settings: fluorescence polarization competition binding assay using Bocillin-FL; column 1; read-out: A. baumannii PBP1a Potency
A. baumannii PBP1a, sequence (A0ABX6CK30 entry or part of it): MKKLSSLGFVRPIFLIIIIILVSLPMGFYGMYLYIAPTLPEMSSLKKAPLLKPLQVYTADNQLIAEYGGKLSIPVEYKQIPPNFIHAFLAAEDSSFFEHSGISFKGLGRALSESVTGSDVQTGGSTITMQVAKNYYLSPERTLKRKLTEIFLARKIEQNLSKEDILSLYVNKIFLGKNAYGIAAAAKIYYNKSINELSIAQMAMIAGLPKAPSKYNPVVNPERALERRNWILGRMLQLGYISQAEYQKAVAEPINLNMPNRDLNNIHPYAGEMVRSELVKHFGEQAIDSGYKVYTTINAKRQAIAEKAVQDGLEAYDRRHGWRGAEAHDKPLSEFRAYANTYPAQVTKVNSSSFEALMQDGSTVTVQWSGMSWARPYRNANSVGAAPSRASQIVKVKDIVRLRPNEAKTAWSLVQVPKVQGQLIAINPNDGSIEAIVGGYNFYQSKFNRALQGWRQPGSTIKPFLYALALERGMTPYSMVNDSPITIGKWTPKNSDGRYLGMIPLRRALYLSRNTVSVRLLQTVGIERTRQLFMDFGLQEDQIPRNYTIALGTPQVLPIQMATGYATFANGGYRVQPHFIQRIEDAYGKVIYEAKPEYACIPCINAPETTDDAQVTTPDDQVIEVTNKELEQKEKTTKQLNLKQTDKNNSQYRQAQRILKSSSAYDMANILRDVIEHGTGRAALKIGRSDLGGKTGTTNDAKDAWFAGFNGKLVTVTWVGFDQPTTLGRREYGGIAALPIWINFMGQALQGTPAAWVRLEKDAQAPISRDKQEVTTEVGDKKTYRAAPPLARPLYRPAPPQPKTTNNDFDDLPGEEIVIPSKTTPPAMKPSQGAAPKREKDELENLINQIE
Excerpt: (§1) Example I: Experimental Method for Penicillin-Binding Protein Binding Assays with Bocillin-FL Via Fluorescence Polarization
(§2) To determine the ability of boronic acid-based test PBP inhibitors to bind Penicillin Binding Proteins (PBPs), Bocillin-FL (fluorescently-labeled penicillin V; ThermoFisher Scientific) was used in a fluorescence polarization (FP) competition binding assay to assess inhibitor binding to PBP2, PBP3 or PBP4 from Escherichia coli (K12), PBP3 from Pseudomonas aeruginosa (PA01), PBP1a, PBP2 and PBP3 from Acinetobacter baumannii (ATCC 19606), and PBP2 from Neiserria gonorrheae (FA19). PBPs were cloned and purified as described previously (E. coli PBPs, King, D. T, et al., ACS Infectious Diseases 2015, 1, 175-184; P. aeruginosa PBP3, Han et. al., PNAS 2010, 107 (51), 22002-22007; A. baumannii PBPs, Penwell et. al., Antimicrob. Agents Chemother. 2015, 59 (3), 1680-1689; N. gonorrhoeae PBP2, Singh et. al., J Biol. Chem. 2019, 294 (38), 14020-14032). To establish assay conditions for competition binding, enzyme titration/saturation binding experiments were initially performed. Bocillin-FL was prepared at 0.2 μM in a buffer comprised of 50 mM Hepes (pH 8.0), 300 mM NaCl and 5% (v/v) glycerol for reactions with E. coli, P. aeruginosa and N. gonorrhoeae PBPs, and 25 mM Tris (pH 8.0), 200 mM NaCl and 10% (v/v) glycerol and 0.005% (v/v) Tween 20 for reactions with A. baumannii PBPs. Saturation binding was performed by mixing 40 μl of PBP solutions ranging in concentrations from 0-24 μM with 40 μl of the 0.2 μM Bocillin-FL solution, in individual wells of a black 384-well microplate. FP was measured immediately upon mixing (Excitation, 490 nm; Emission, 520 nm; g-factor, 0.96), using a Cytation3 (BioTek) microplate reader and measured continuously for up to 120 minutes. […] The competition binding assay (80 μl final volume) was validated using beta-lactams and PBPs at final concentrations of: 1.5 μM, E. coli PBP3; 0.75 μM, P. aeruginosa PBP3; 1 μM A. baumannii PBP1a; 2.5 μM A. baumannii PBP2; 0.2 μM A. baumannii PBP3; and […] N. gonorrhoeae PBP2. Bocillin-FL was at 0.1 μM (0.05 μM with A. baumannii PBP1a) and beta-lactam concentrations ranged from 0-1000 μM. […] Bocillin-FL was added and the FP immediately measured for up to 60 minutes (90 minutes for E. coli PBP2). […] The beta-lactam potency was reported as the concentration of beta-lactam required to reduce the amount of PBP bound-Bocillin-FL by 50% (EC50). […] Binding assays for boronic acid PBP inhibitors were performed in an identical fashion for the respective PBPs

A. baumannii PBP2 = target: T1, A. baumannii PBP2 (Acinetobacter baumannii, UniProt D0C8Z9); test: Bocillin-FL fluorescence polarization competition binding assay, A. baumannii PBP2; settings: fluorescence polarization competition binding assay using Bocillin-FL; read-out: A. baumannii PBP2 Potency
T1 construct: made in house
T1 sequence (D0C8Z9 1-672): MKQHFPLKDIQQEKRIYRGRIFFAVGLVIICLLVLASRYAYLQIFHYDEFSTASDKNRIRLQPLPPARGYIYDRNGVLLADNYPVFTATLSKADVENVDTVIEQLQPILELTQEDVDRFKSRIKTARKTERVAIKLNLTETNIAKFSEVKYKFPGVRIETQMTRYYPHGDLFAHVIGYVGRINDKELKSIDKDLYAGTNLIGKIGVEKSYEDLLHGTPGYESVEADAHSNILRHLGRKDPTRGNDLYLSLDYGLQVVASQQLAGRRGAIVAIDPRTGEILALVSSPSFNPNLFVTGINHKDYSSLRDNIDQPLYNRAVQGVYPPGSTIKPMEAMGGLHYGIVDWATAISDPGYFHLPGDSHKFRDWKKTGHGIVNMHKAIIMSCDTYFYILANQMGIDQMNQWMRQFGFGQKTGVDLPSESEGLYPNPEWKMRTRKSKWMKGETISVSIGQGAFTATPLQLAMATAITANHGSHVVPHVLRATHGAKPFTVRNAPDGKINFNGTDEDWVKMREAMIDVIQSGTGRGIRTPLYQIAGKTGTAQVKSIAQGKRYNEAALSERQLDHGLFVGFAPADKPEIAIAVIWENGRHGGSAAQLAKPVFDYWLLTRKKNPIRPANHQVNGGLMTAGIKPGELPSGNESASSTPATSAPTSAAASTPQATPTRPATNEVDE
Excerpt: as §1, §2

SMILES	pEC50 [1]	pEC50 (A. baumannii PBP1a)	pEC50 (A. baumannii PBP2)
NCCN1CCN(C(=O)N[C@H](C(=O)N[C@H]2Cc3cccc(C(=O)O)c3OB2O)c2c(F)cc(O)cc2F)C(=O)C1=O (single isomer, unassigned) [Example 110]	< 4.00	–	–
CCN1CCN(C(=O)N[C@@H](C(=O)N[C@H]2Cc3cccc(C(=O)O)c3OB2O)c2ccc(C(=O)O)cc2)C(=O)C1=O (single isomer, unassigned) [Example 124]	> 5.00	–	–
CCN1CCN(C(=O)N[C@H](C(=O)N[C@H]2Cc3ccc(F)c(C(=O)O)c3OB2O)c2c(F)cc(O)c(O)c2Cl)C(=O)C1=O (single isomer, unassigned) [Example 125]	< 4.00	–	–
NC1(CN2CCN(C(=O)N[C@@H](C(=O)N[C@H]3Cc4ccc(F)c(C(=O)O)c4OB3O)c3cc(F)c(O)c(O)c3Cl)C(=O)C2=O)CC1 (single isomer, unassigned) [Example 133]	> 5.00	–	–
NC1(CN2CCN(C(=O)N[C@@H](C(=O)N[C@H]3Cc4ccc(F)c(C(=O)O)c4OB3O)c3c(F)cc(O)c(O)c3Cl)C(=O)C2=O)CC1 (single isomer, unassigned) [Example 134]	> 5.00	< 4.00	4.00 to 4.52
NCCN1CCN(C(=O)N[C@@H](C(=O)N[C@H]2Cc3ccc(F)c(C(=O)O)c3OB2O)c2cc(F)c(O)c(O)c2Cl)C(=O)C1=O (single isomer, unassigned) [Example 179]	< 4.00	< 4.00	< 4.00
NCCCN1CCN(C(=O)N[C@@H](C(=O)N[C@H]2Cc3ccc(F)c(C(=O)O)c3OB2O)c2cc(F)c(O)c(O)c2Cl)C(=O)C1=O (single isomer, unassigned) [Example 180]	< 4.00	< 4.00	< 4.00
C[C@@H](O)[C@@H](NC(=O)N1CCN(CCNC(=O)c2c(F)cc(O)c(O)c2Cl)C(=O)C1=O)C(=O)N[C@H]1Cc2ccc(F)c(C(=O)O)c2OB1O [Example 102, (R)-3-((2R,3R)-2-(4-(2-(2-chloro-6-fluoro-3,4-dihydroxybenzamido)ethyl)-2,3-dioxopiperazine-1-carboxamido)-3-hydroxybutanamido)-7-fluoro-2-hydroxy-3,4-dihydro-2H-benzo[e][1,2]oxaborinine-8-carboxylic acid]	4.00 to 4.52	< 4.00	< 4.00
NS(=O)(=O)Nc1cccc(C(NC(=O)N2CCN(Cc3c(F)cc(O)c(O)c3Cl)C(=O)C2=O)C(=O)N[C@H]2Cc3cccc(C(=O)O)c3OB2O)c1 (stereo partly drawn) [Example 131, (3R)-3-(2-(4-(2-chloro-6-fluoro-3,4-dihydroxybenzyl)-2,3-dioxopiperazine-1-carboxamido)-2-(3-(sulfamoylamino)phenyl)acetamido)-2-hydroxy-3,4-dihydro-2H-benzo[e][1,2]oxaborinine-8-carboxylic acid]	> 5.00	4.00 to 4.52	4.00 to 4.52
NS(=O)(=O)c1cc(O)cc(C(NC(=O)N2CCN(Cc3c(F)cc(O)c(O)c3Cl)C(=O)C2=O)C(=O)N[C@H]2Cc3cccc(C(=O)O)c3OB2O)c1 (stereo partly drawn) [Example 132, (3R)-3-(2-(4-(2-chloro-6-fluoro-3,4-dihydroxybenzyl)-2,3-dioxopiperazine-1-carboxamido)-2-(3-hydroxy-5-sulfamoylphenyl)acetamido)-2-hydroxy-3,4-dihydro-2H-benzo[e][1,2]oxaborinine-8-carboxylic acid]	> 5.00	4.00 to 4.52	< 4.00
CCN1CCN(C(=O)NC(C(=O)N[C@H]2Cc3cccc(C(=O)O)c3OB2O)c2c(F)cc(N)cc2F)C(=O)C1=O (stereo partly drawn) [Example 181, (3R)-3-(2-(4-amino-2,6-difluorophenyl)-2-(4-ethyl-2,3-dioxopiperazine-1-carboxamido)acetamido)-2-hydroxy-3,4-dihydro-2H-benzo[e][1,2]oxaborinine-8-carboxylic acid]	< 4.00	< 4.00	< 4.00
